Read-outs that look alike come from different tables or passages of the source.

The CC50 is the concentration giving 50% cytotoxicity. Higher therefore signals better tolerance by the cells. A word on the EC50: it is the concentration at which the effect is half-maximal.

The nature of data set [1]: Compound toxicity, ATPLite total ATP levels. The data set is classed as cell-based. The note with it: human, HepAD38 cells, three days after compound addition, concentration reducing total ATP levels by 50% relative to no drug controls. The protocol:
Methods: HepAD38 cells are maintained as previously reported (Ladner et al, Antimicrob. Agents Chemother. 1997, […], 1715). Briefly, cells are passaged upon attaining confluency in DMEM/F12 media in the presence of 10% FBS, Penn/Strep, 250 μg/mL G418, and 1 ug/ml tetracycline. Novel compounds are screened by first washing cells three times with PBS to remove tetracycline, and plating in 96 well plates at 35,000 cells/well. Compounds dissolved in DMSO are then diluted 1:200 into wells containing cells. Five days after compound addition, material is harvested for analysis. For an extended 8 day analysis, cells are plated and treated as described above, but media and compound are refreshed on d2 and d5 post initial treatment.
Compound toxicity is evaluated by seeding cells at 15,000 cells/well and treating with compound as described above.
On the technique in general: ATP-based viability assays read luminescence as a measure of living cells.

Another data set deals with HBV. In words: HepAD38 antiviral assay: reduction of viral product accumulation (virion DNA by qPCR, HBsAg or HBeAg by ELISA). The following applies: HepAD38 cells, five days after compound addition, concentration reducing viral product accumulation by 50% relative to no drug controls, read-out: HepAD38 EC50. Format: cell-based, hepatitis B virus. The gist of the method:
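HepAD38 cells were washed free of tetracycline, plated at 35,000 cells/well and given compounds diluted 1:200 from DMSO. After 5 days, or 8 days with media and compound refreshed on d2 and d5, virion DNA was measured by qPCR and HBsAg or HBeAg by ELISA. EC50 is the concentration giving 50% reduction of viral product versus no-drug controls.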

[2] abbreviates: Hepatitis B virus, HePAD38, 120 h.

For `O=C(Nc1cc(F)c(F)c(F)c1)c1ccc(Cl)c(S(=O)(=O)[C@H]2CC3CCC(C2)[C@H]3c2ncc[nH]2)c1` [Example 303], the CC50 at 3 days in data set [1] (class symbols) is under 10 µM. For the same molecule, the EC50 in the data set on HBV (setting [2]) is under 100 nM.

In data set [1] (numeric bounds), `[N-]=[N+]=NC[C@@H]1CC2CC[C@@H](C1)[C@H]2S(=O)(=O)c1cc(C(=O)Nc2cc(F)c(F)c(F)c2)ccc1Cl` [Example 304] showed a CC50 at 3 days of over 6.25 µM. Moreover, in the data set on HBV (setting [2]), the EC50 fell in the range of 100 to 400 nM.

For the molecule `O=C1NC[C@@]2(CC3CC[C@@H](C2)[C@H]3S(=O)(=O)c2cc(C(=O)Nc3cc(F)c(F)c(F)c3)ccc2Cl)O1` [Example 306], the CC50 at 3 days in data set [1] (numeric bounds) was over 12.5 µM. Moreover, in the data set with HBV (setting [2]), the EC50 was under 100 nM.

The molecule `CS(=O)(=O)NC[C@]1(O)CC2CC[C@@H](C1)[C@H]2S(=O)(=O)c1cc(C(=O)Nc2cc(F)c(F)c(F)c2)ccc1Cl` [Example 307] yielded a CC50 at 3 days in data set [1] (class symbols) of over 25 µM. In addition, the EC50 in the data set with HBV (setting [2]) is under 100 nM.

On to `O=C(Nc1cc(F)c(F)c(F)c1)c1ccc(Cl)c(S(=O)(=O)[C@H]2CC3CCC(C2)[C@]3(O)c2ccccn2)c1` [Example 308], for which, in data set [1] (class symbols), the CC50 at 3 days is over 25 µM. Besides, in the data set on HBV (setting [2]), the EC50 was under 100 nM.

`COC(=O)N[C@H]1C2CCC1C[C@@H](S(=O)(=O)c1cc(C(=O)Nc3cc(F)c(F)c(F)c3)ccc1Cl)C2` [Example 309]: in data set [1] (class symbols), the CC50 at 3 days was over 25 µM. Besides, the concentration for a half-maximal effect (EC50) in the data set on HBV (setting [2]) is under 100 nM.

In data set [1] (class symbols), `CS(=O)(=O)N[C@@H]1C2CC[C@H]1C[C@H](S(=O)(=O)c1cc(C(=O)Nc3cc(F)c(F)c(F)c3)ccc1Cl)C2` [Example 310] registered a CC50 at 3 days of over 25 µM. Moreover, in the data set on HBV (setting [2]), the EC50 is under 100 nM.

In turn, `O=C(Nc1cc(F)c(F)c(F)c1)c1ccc(Cl)c(S(=O)(=O)[C@H]2C3CC[C@H]2C[C@H](Cn2ccnc2)C3)c1` [Example 312] showed a CC50 at 3 days in data set [1] (class symbols) of 10 to 25 µM. The EC50 in the data set on HBV (setting [2]) is under 100 nM.

The molecule `O=C(Nc1cc(F)c(F)c(F)c1)c1ccc(Cl)c(S(=O)(=O)[C@H]2C3CC[C@H]2C[C@](O)(Cn2cccn2)C3)c1` [Example 313] returned a CC50 at 3 days in data set [1] (numeric bounds) of over 6.25 µM. For the same molecule, in the data set with HBV (setting [2]), the EC50 is under 100 nM.

Molecule `O=C(Nc1cc(F)c(F)c(F)c1)c1ccc(Cl)c(S(=O)(=O)[C@H]2C3CC[C@H]2C[C@](O)(COCc2ccccn2)C3)c1` [Example 317] yielded a CC50 at 3 days in data set [1] (class symbols) of under 10 µM. Moreover, the EC50 in the data set with HBV (setting [2]) was under 100 nM.

As to `O=C(Nc1cc(F)c(F)c(F)c1)c1ccc(Cl)c(S(=O)(=O)[C@H]2C3CC[C@H]2C[C@](O)(COCCO)C3)c1` [Example 319], the CC50 at 3 days in data set [1] (class symbols) is over 25 µM. The EC50 in the data set on HBV (setting [2]) is under 100 nM.

In data set [1] (class symbols), `COC(=O)NC1CC2CC[C@@H](C1)[C@H]2S(=O)(=O)c1cc(C(=O)Nc2cc(F)c(F)c(F)c2)ccc1Cl` (stereo partly drawn) [Example 321] displayed a CC50 at 3 days of over 25 µM. For the same molecule, the EC50 in the data set on HBV (setting [2]) was under 100 nM.

`O=C(Nc1cc(F)c(F)c(F)c1)c1ccc(Cl)c(S(=O)(=O)[C@H]2CC3CCC(C2)[C@]3(O)c2nccs2)c1` [Example 322] had a CC50 at 3 days in data set [1] (class symbols) of 10 to 25 µM. Also, the EC50 in the data set with HBV (setting [2]) is under 100 nM.

Turning to `O=C(Nc1cc(F)c(F)c(F)c1)c1ccc(Cl)c(S(=O)(=O)[C@H]2CC3CCC(C2)[C@]3(O)CO)c1` [Example 324], the CC50 at 3 days in data set [1] (numeric bounds) was over 12.5 µM. Besides, the EC50 in the data set on HBV was under 100 nM.

With `Cn1ccnc1[C@]1(O)CC2CC[C@@H](C1)[C@H]2S(=O)(=O)c1cc(C(=O)Nc2cc(F)c(F)c(F)c2)ccc1Cl` [Example 329], the CC50 at 3 days in data set [1] (numeric bounds) was over 6.25 µM. Further, the EC50 in the data set with HBV (setting [2]) is under 100 nM.

`O=C(Nc1cc(F)c(F)c(F)c1)c1ccc(Cl)c(S(=O)(=O)[C@H]2C3CC[C@H]2C[C@](O)(c2ncc(-c4ccccc4)[nH]2)C3)c1` [Example 330]: in data set [1] (class symbols), the CC50 at 3 days is under 10 µM. In addition, the EC50 with HBV (setting [2]) was under 100 nM.

Regarding `O=C(Nc1cc(F)c(F)c(F)c1)c1ccc(Cl)c(S(=O)(=O)[C@H]2CC3CCC(C2)[C@]3(O)c2cccnc2)c1` [Example 331], the CC50 at 3 days in data set [1] (class symbols) is 10 to 25 µM. Besides, the EC50 in the data set with HBV (setting [2]) is under 100 nM.

Molecule `O=C(Nc1cc(F)c(F)c(F)c1)c1ccc(Cl)c(S(=O)(=O)[C@H]2CC3CCC(C2)[C@]3(O)c2ccncc2)c1` [Example 332] registered a CC50 at 3 days in data set [1] (class symbols) of 10 to 25 µM. Moreover, the EC50 in the data set on HBV (setting [2]) was under 100 nM.

Source of the values: US10538532B2, “Hepatitis B antiviral agents” (ENANTA PHARMACEUTICALS, INC., priority 2016, dated 2020).
